# Source: ChEMBL document CHEMBL3232809, “Synthesis, antibiotic activity and structure-activity relationship study of some 3-enaminetetramic acids” (2014)
# System: Streptococcus pneumoniae
# Test: Antimicrobial activity against penicillin- and erythromycin-resistant Streptococcus pneumoniae
# Type: functional
row,Compound,MIC [µg/mL]
1,COC(=O)[C@@]12CO[C@@H](C(C)(C)C)N1C(=O)/C(=C(\C)NC13CC4CC(CC(C4)C1)C3)C2=O,> 64
2,CCOC(=O)[C@]12CO[C@H](C(C)(C)C)N1C(=O)/C(=C(\C)NCCOc1ccccc1)C2=O,1
3,C/C(NCCOc1ccccc1Cl)=C1/C(=O)CN(C(=O)OC(C)(C)C)C1=O,> 64
4,CCCCCCCCCCC/C(NCCCOC(C)C)=C1\C(=O)CNC1=O,4
5,CCCCCCCCC/C(=C1\C(=O)CNC1=O)N1CCCCC1,16

# System: Streptococcus pneumoniae
# Test: Antimicrobial activity against penicillin- and erythromycin-resistant Streptococcus pneumoniae in presence of 2.5% horse blood
# Type: functional
row,Compound,MIC [µg/mL]
1,COC(=O)[C@@]12CO[C@@H](C(C)(C)C)N1C(=O)/C(=C(\C)NC13CC4CC(CC(C4)C1)C3)C2=O,> 64
2,CCOC(=O)[C@]12CO[C@H](C(C)(C)C)N1C(=O)/C(=C(\C)NCCOc1ccccc1)C2=O,2
3,C/C(NCCOc1ccccc1Cl)=C1/C(=O)CN(C(=O)OC(C)(C)C)C1=O,> 64
4,CCCCCCCCCCC/C(NCCCOC(C)C)=C1\C(=O)CNC1=O,32
5,CCCCCCCCC/C(=C1\C(=O)CNC1=O)N1CCCCC1,16

# System: Staphylococcus aureus
# Test: Antimicrobial activity against methicillin-sensitive Staphylococcus aureus ATCC 13709
# Type: functional
row,Compound,MIC [µg/mL]
1,COC(=O)[C@@]12CO[C@@H](C(C)(C)C)N1C(=O)/C(=C(\C)NC13CC4CC(CC(C4)C1)C3)C2=O,> 64
2,CCOC(=O)[C@]12CO[C@H](C(C)(C)C)N1C(=O)/C(=C(\C)NCCOc1ccccc1)C2=O,64
3,CCCCCCCCCCC/C(NCCCOC(C)C)=C1\C(=O)CNC1=O,16
4,CCCCCCCCC/C(=C1\C(=O)CNC1=O)N1CCCCC1,16

# System: Staphylococcus aureus
# Test: Antimicrobial activity against vancomycin-susceptible Staphylococcus aureus ATCC 25923
# Type: functional
row,Compound,MIC [µg/mL]
1,COC(=O)[C@@]12CO[C@@H](C(C)(C)C)N1C(=O)/C(=C(\C)NC13CC4CC(CC(C4)C1)C3)C2=O,> 64
2,CCOC(=O)[C@]12CO[C@H](C(C)(C)C)N1C(=O)/C(=C(\C)NCCOc1ccccc1)C2=O,64
3,C/C(NCCOc1ccccc1Cl)=C1/C(=O)CN(C(=O)OC(C)(C)C)C1=O,> 64
4,CCCCCCCCCCC/C(NCCCOC(C)C)=C1\C(=O)CNC1=O,> 64
5,CCCCCCCCC/C(=C1\C(=O)CNC1=O)N1CCCCC1,16

# System: Staphylococcus aureus
# Test: Antimicrobial activity against Staphylococcus aureus Oxford
# Type: functional
row,Compound,MIC [µg/mL]
1,COC(=O)[C@@]12CO[C@@H](C(C)(C)C)N1C(=O)/C(=C(\C)NC13CC4CC(CC(C4)C1)C3)C2=O,> 64
2,CCOC(=O)[C@]12CO[C@H](C(C)(C)C)N1C(=O)/C(=C(\C)NCCOc1ccccc1)C2=O,> 64
3,C/C(NCCOc1ccccc1Cl)=C1/C(=O)CN(C(=O)OC(C)(C)C)C1=O,> 64
4,CCCCCCCCCCC/C(NCCCOC(C)C)=C1\C(=O)CNC1=O,16
5,CCCCCCCCC/C(=C1\C(=O)CNC1=O)N1CCCCC1,16

# System: Staphylococcus aureus
# Test: Antimicrobial activity against methicillin-resistant Staphylococcus aureus
# Type: functional
row,Compound,MIC [µg/mL]
1,COC(=O)[C@@]12CO[C@@H](C(C)(C)C)N1C(=O)/C(=C(\C)NC13CC4CC(CC(C4)C1)C3)C2=O,> 64
2,CCOC(=O)[C@]12CO[C@H](C(C)(C)C)N1C(=O)/C(=C(\C)NCCOc1ccccc1)C2=O,64
3,C/C(NCCOc1ccccc1Cl)=C1/C(=O)CN(C(=O)OC(C)(C)C)C1=O,> 64
4,CCCCCCCCCCC/C(NCCCOC(C)C)=C1\C(=O)CNC1=O,64
5,CCCCCCCCC/C(=C1\C(=O)CNC1=O)N1CCCCC1,16

# System: Enterococcus faecalis
# Test: Antimicrobial activity against vancomycin-susceptible Enterococcus faecalis ATCC 29212
# Type: functional
row,Compound,MIC [µg/mL]
1,COC(=O)[C@@]12CO[C@@H](C(C)(C)C)N1C(=O)/C(=C(\C)NC13CC4CC(CC(C4)C1)C3)C2=O,> 64
2,CCOC(=O)[C@]12CO[C@H](C(C)(C)C)N1C(=O)/C(=C(\C)NCCOc1ccccc1)C2=O,64
3,C/C(NCCOc1ccccc1Cl)=C1/C(=O)CN(C(=O)OC(C)(C)C)C1=O,> 64
4,CCCCCCCCCCC/C(NCCCOC(C)C)=C1\C(=O)CNC1=O,16
5,CCCCCCCCC/C(=C1\C(=O)CNC1=O)N1CCCCC1,16

# System: Enterococcus faecium
# Test: Antimicrobial activity against vancomycin-resistant Enterococcus faecium
# Type: functional
row,Compound,MIC [µg/mL]
1,COC(=O)[C@@]12CO[C@@H](C(C)(C)C)N1C(=O)/C(=C(\C)NC13CC4CC(CC(C4)C1)C3)C2=O,> 64
2,CCOC(=O)[C@]12CO[C@H](C(C)(C)C)N1C(=O)/C(=C(\C)NCCOc1ccccc1)C2=O,8
3,C/C(NCCOc1ccccc1Cl)=C1/C(=O)CN(C(=O)OC(C)(C)C)C1=O,> 64
4,CCCCCCCCCCC/C(NCCCOC(C)C)=C1\C(=O)CNC1=O,8
5,CCCCCCCCC/C(=C1\C(=O)CNC1=O)N1CCCCC1,8

# System: Streptococcus pneumoniae
# Test: Antimicrobial activity against erythromycin-susceptible Streptococcus pneumoniae ATCC 49619
# Type: functional
row,Compound,MIC [µg/mL]
1,COC(=O)[C@@]12CO[C@@H](C(C)(C)C)N1C(=O)/C(=C(\C)NC13CC4CC(CC(C4)C1)C3)C2=O,> 64
2,CCOC(=O)[C@]12CO[C@H](C(C)(C)C)N1C(=O)/C(=C(\C)NCCOc1ccccc1)C2=O,2
3,C/C(NCCOc1ccccc1Cl)=C1/C(=O)CN(C(=O)OC(C)(C)C)C1=O,> 64
4,CCCCCCCCCCC/C(NCCCOC(C)C)=C1\C(=O)CNC1=O,4
5,CCCCCCCCC/C(=C1\C(=O)CNC1=O)N1CCCCC1,> 64

# System: Haemophilus influenzae
# Test: Antimicrobial activity against Haemophilus influenzae ATCC 31517 MMSA
# Type: functional
row,Compound,MIC [µg/mL]
1,COC(=O)[C@@]12CO[C@@H](C(C)(C)C)N1C(=O)/C(=C(\C)NC13CC4CC(CC(C4)C1)C3)C2=O,> 64
2,CCOC(=O)[C@]12CO[C@H](C(C)(C)C)N1C(=O)/C(=C(\C)NCCOc1ccccc1)C2=O,> 64
3,C/C(NCCOc1ccccc1Cl)=C1/C(=O)CN(C(=O)OC(C)(C)C)C1=O,> 64
4,CCCCCCCCCCC/C(NCCCOC(C)C)=C1\C(=O)CNC1=O,> 64
5,CCCCCCCCC/C(=C1\C(=O)CNC1=O)N1CCCCC1,64

# System: Haemophilus influenzae
# Test: Antimicrobial activity against LS2 Efflux knock-out Haemophilus influenzae
# Type: functional
row,Compound,MIC [µg/mL]
1,COC(=O)[C@@]12CO[C@@H](C(C)(C)C)N1C(=O)/C(=C(\C)NC13CC4CC(CC(C4)C1)C3)C2=O,16
2,CCOC(=O)[C@]12CO[C@H](C(C)(C)C)N1C(=O)/C(=C(\C)NCCOc1ccccc1)C2=O,32
3,C/C(NCCOc1ccccc1Cl)=C1/C(=O)CN(C(=O)OC(C)(C)C)C1=O,32
4,CCCCCCCCCCC/C(NCCCOC(C)C)=C1\C(=O)CNC1=O,2
5,CCCCCCCCC/C(=C1\C(=O)CNC1=O)N1CCCCC1,> 64

# System: Escherichia coli
# Test: Antimicrobial activity against Escherichia coli ATCC 25922
# Type: functional
row,Compound,MIC [µg/mL]
1,COC(=O)[C@@]12CO[C@@H](C(C)(C)C)N1C(=O)/C(=C(\C)NC13CC4CC(CC(C4)C1)C3)C2=O,> 32
2,CCOC(=O)[C@]12CO[C@H](C(C)(C)C)N1C(=O)/C(=C(\C)NCCOc1ccccc1)C2=O,> 32
3,C/C(NCCOc1ccccc1Cl)=C1/C(=O)CN(C(=O)OC(C)(C)C)C1=O,> 32
4,CCCCCCCCCCC/C(NCCCOC(C)C)=C1\C(=O)CNC1=O,> 32
5,CCCCCCCCC/C(=C1\C(=O)CNC1=O)N1CCCCC1,> 32

# System: Escherichia coli
# Test: Antimicrobial activity against Escherichia coli 50
# Type: functional
row,Compound,MIC [µg/mL]
1,COC(=O)[C@@]12CO[C@@H](C(C)(C)C)N1C(=O)/C(=C(\C)NC13CC4CC(CC(C4)C1)C3)C2=O,> 32
2,CCOC(=O)[C@]12CO[C@H](C(C)(C)C)N1C(=O)/C(=C(\C)NCCOc1ccccc1)C2=O,> 32
3,C/C(NCCOc1ccccc1Cl)=C1/C(=O)CN(C(=O)OC(C)(C)C)C1=O,> 32
4,CCCCCCCCCCC/C(NCCCOC(C)C)=C1\C(=O)CNC1=O,> 32
5,CCCCCCCCC/C(=C1\C(=O)CNC1=O)N1CCCCC1,> 32

# System: Pseudomonas aeruginosa
# Test: Antimicrobial activity against Pseudomonas aeruginosa ATCC 27853
# Type: functional
row,Compound,MIC [µg/mL]
1,COC(=O)[C@@]12CO[C@@H](C(C)(C)C)N1C(=O)/C(=C(\C)NC13CC4CC(CC(C4)C1)C3)C2=O,> 32
2,CCOC(=O)[C@]12CO[C@H](C(C)(C)C)N1C(=O)/C(=C(\C)NCCOc1ccccc1)C2=O,> 32
3,C/C(NCCOc1ccccc1Cl)=C1/C(=O)CN(C(=O)OC(C)(C)C)C1=O,> 32
4,CCCCCCCCCCC/C(NCCCOC(C)C)=C1\C(=O)CNC1=O,> 32
5,CCCCCCCCC/C(=C1\C(=O)CNC1=O)N1CCCCC1,> 32

# System: Escherichia coli
# Test: Antimicrobial activity against Escherichia coli 49
# Type: functional
row,Compound,MIC [µg/mL]
1,COC(=O)[C@@]12CO[C@@H](C(C)(C)C)N1C(=O)/C(=C(\C)NC13CC4CC(CC(C4)C1)C3)C2=O,> 32
2,CCOC(=O)[C@]12CO[C@H](C(C)(C)C)N1C(=O)/C(=C(\C)NCCOc1ccccc1)C2=O,> 32
3,C/C(NCCOc1ccccc1Cl)=C1/C(=O)CN(C(=O)OC(C)(C)C)C1=O,> 32
4,CCCCCCCCCCC/C(NCCCOC(C)C)=C1\C(=O)CNC1=O,> 32
5,CCCCCCCCC/C(=C1\C(=O)CNC1=O)N1CCCCC1,> 32
